Results: ChEMBL document CHEMBL5233265, “Recent advances in the design and development of formyl peptide receptor 2 (FPR2/ALX) agonists as pro-resolving agents with diverse therapeutic potential” (Eur J Med Chem, 2021)

Tests used:
Assay type in all cases: cell-based; call rule not given here
[1] = target: T1, N-formyl peptide receptor 2 (Homo sapiens, UniProt P25090); assay: Agonist activity at human FPR2 expressed in CHO cells assessed as cAMP level incubated for 1.5 hr by HTRF assay
T1 sequence (P25090 whole entry): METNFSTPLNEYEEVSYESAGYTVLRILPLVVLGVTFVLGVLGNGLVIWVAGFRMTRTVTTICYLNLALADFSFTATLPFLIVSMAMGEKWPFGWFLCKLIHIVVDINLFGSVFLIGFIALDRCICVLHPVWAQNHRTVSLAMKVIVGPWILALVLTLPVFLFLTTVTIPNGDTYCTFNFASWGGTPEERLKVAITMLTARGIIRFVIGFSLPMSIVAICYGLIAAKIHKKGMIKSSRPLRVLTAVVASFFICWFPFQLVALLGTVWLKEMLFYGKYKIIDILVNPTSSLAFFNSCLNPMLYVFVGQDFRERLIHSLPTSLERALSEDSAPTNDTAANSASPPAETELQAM

fMet-Leu-Phe receptor [2] = target: T2, fMet-Leu-Phe receptor (Homo sapiens, UniProt P21462); assay: Agonist activity at human FPR1 expressed in CHO cells assessed as increase in calcium flux incubated for 50 mins by FLIPR calcium 5 dye based fluorescence assay
T2 sequence (P21462 whole entry): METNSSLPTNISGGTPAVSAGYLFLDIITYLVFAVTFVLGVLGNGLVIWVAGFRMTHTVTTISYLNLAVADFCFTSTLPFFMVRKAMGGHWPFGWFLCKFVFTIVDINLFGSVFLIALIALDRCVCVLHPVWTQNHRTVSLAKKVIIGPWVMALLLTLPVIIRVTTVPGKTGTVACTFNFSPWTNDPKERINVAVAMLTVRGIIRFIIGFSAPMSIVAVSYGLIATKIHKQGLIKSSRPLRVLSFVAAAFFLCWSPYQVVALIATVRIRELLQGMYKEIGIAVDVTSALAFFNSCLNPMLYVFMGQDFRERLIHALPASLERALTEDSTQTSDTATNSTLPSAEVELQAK

[3] = target: T1, N-formyl peptide receptor 2; assay: Agonist activity at human FPR2 expressed in CHO cells assessed as increase in calcium flux incubated for 50 mins by FLIPR calcium 5 dye based fluorescence assay
fMet-Leu-Phe receptor [4] = target: T2, fMet-Leu-Phe receptor; assay: Agonist activity at human FPR1 expressed in CHO cells assessed as cAMP level incubated for 1.5 hr by HTRF assay
[5] = target: T3, fMet-Leu-Phe receptor (Homo sapiens) (UniProt P21462); assay: Agonist activity at FPR1 (unknown origin) expressed in CHO/Galpha16 cells assessed as maximal calcium flux at 0.61 to 10000 nM by FLIPR assay relative to control; settings: dose 0.61-10000 nM
T3 sequence (whole entry): T2 sequence (P21462 whole entry)

Homo sapiens = species on record: Homo sapiens; assay: Selectivity index, ratio of EC50 for agonist activity at FPR2 (unknown origin) expressed in CHO/Galpha16 cells to EC50 for FPR1 (unknown origin) expressed in CHO/Galpha16 cells
[6] = target: T4, N-formyl peptide receptor 2 (Homo sapiens) (UniProt P25090); assay: Agonist activity at FPR2 (unknown origin) expressed in CHO/Galpha16 cells assessed as maximal calcium flux at 0.61 to 10000 nM by FLIPR assay relative to control; settings: dose 0.61-10000 nM
T4 sequence (whole entry): T1 sequence (P25090 whole entry)

[7] = target: T1, N-formyl peptide receptor 2; assay: Agonist activity at human FPR2 transfected in HL-60 cells assessed as increase in intracellular calcium flux incubated for 30 mins by Fluo-4 AM dye based fluorometer analysis
[8] = target: T4, N-formyl peptide receptor 2 (Homo sapiens); assay: Agonist activity at human FPR2 transfected in HL-60 cells assessed as maximal intracellular calcium flux incubated for 30 mins by Fluo-4 AM dye based fluorometer analysis relative to control; settings: filed as agonist
fMet-Leu-Phe receptor [9] = target: T2, fMet-Leu-Phe receptor; assay: Agonist activity at human FPR1 transfected in HL-60 cells assessed as increase in intracellular calcium flux incubated for 30 mins by Fluo-4 AM dye based fluorometer analysis
[10] = target: T1, N-formyl peptide receptor 2; assay: Agonist activity at FPR2 (unknown origin) expressed in CHO/Galpha16 cells assessed as increase in calcium flux by FLIPR assay
fMet-Leu-Phe receptor [11] = target: T2, fMet-Leu-Phe receptor; assay: Agonist activity at FPR1 (unknown origin) expressed in CHO/Galpha16 cells assessed as increase in calcium flux by FLIPR assay

SMILES: O=C(Nc1ccc(C(F)(F)F)cc1)N[C@H]1CCCN(c2ccc(-c3ccccc3C(=O)O)cc2)C1=O
- EC50 [1]: 40 nM

SMILES: COc1ccc([C@H]2CCN(Cc3ccccn3)C(=O)[C@@H]2NC(=O)Nc2ccc(F)cc2)cc1 (relative stereo)
- EC50 (fMet-Leu-Phe receptor [2]): 1 nM
- EC50 [3]: < 1 nM

SMILES: CP(C)(=O)c1ccccc1-c1ccc(N2CC3(CC3)[C@@H](NC(=O)Nc3ccc(Cl)cc3F)C2=O)c(F)c1F
- EC50 (fMet-Leu-Phe receptor [4]; read-out: EC50): > 5000 nM

SMILES: COc1cc(F)c([C@H]2CCN(CCC(F)F)C[C@@H]2NC(=O)Nc2ccc(Cl)cc2)c(F)c1 (relative stereo; form 2)
- EC50 (fMet-Leu-Phe receptor [2]; cho): 1 nM
- EC50 [3]: < 1 nM

SMILES: CC(C)C[C@H](NC(=O)CNC(=O)Nc1ccc(Br)cc1)C(=O)O
- Emax [5]: 100%
- Ratio EC50 (Homo sapiens): 386
- Emax [6]: 91%

SMILES: CC(C)C(C(=O)O)C(C)NC(=O)Nc1ccc(Br)cc1 (stereo in doubt; 19)
- Emax [5]: 103%
- Ratio EC50 (Homo sapiens): 249
- Emax [6]: 56%

SMILES: COc1cc(F)c([C@@H]2CN(CC3CC3)C(=O)[C@H]2NC(=O)NC2(c3cccc(C)n3)CC2)c(F)c1
- EC50 [1]: < 10 nM
- EC50 (fMet-Leu-Phe receptor [4]; cho): Not Active

SMILES: COc1cc(F)c([C@H]2CCN(CCC(F)F)C[C@@H]2NC(=O)Nc2ccc(Cl)cc2)c(F)c1 (relative stereo; form 1)
- EC50 (fMet-Leu-Phe receptor [2]): 1 nM
- EC50 [3]: 1 nM

SMILES: COc1cc(F)c([C@H]2CCN(CC3CC3)C(=O)[C@@H]2NC(=O)Nc2ccc(Cl)cc2)c(F)c1
- EC50 (fMet-Leu-Phe receptor [2]): 1 nM
- EC50 [3]: < 1 nM

SMILES: COc1ccc(NC(=O)N[C@@H](Cc2ccc(C#N)cc2)C(=O)NCC2(c3ccc(O)cc3)CC2)cc1
- EC50 ([7]; read-out: EC50): 1600 nM
- Emax [8]: 75%
- EC50 (fMet-Leu-Phe receptor [9]; read-out: EC50): 1300 nM

SMILES: CC(=O)N1CCN(c2ccc(N3CCC[C@@H](NC(=O)Nc4ccc(C(F)(F)F)cc4)C3=O)cc2)CC1
- EC50 [1]: 100 nM

SMILES: CS(=O)(=O)NCC1(c2ccc(N3CCC[C@@H](NC(=O)Nc4ccc(C(F)(F)F)nc4)C3=O)cc2)CCCC1
- EC50 [1]: < 100 nM
- EC50 (fMet-Leu-Phe receptor [4]; cho): Not Active

SMILES: O=C(Nc1ccc(C(F)(F)F)cc1)N[C@@H]1CCCN(c2ccc(-c3ccccc3C(=O)O)cc2)C1=O
- EC50 [1]: 5 nM

SMILES: CC(C)C(C(=O)O)C(C)NC(=O)Nc1ccc(Br)cc1 (stereo in doubt; 20) [listing 1 of 2 here]
- EC50 [10]: 9940 nM
- EC50 (fMet-Leu-Phe receptor [11]): 98 nM

SMILES: COc1ccc([C@H]2CCN(Cc3cccnc3)C(=O)[C@@H]2NC(=O)Nc2ccc(F)cc2)cc1 (relative stereo)
- EC50 (fMet-Leu-Phe receptor [2]): 1 nM
- EC50 [3]: 1 nM

SMILES: N#Cc1ccc(C[C@@H](NC(=O)Nc2ccc(O)cc2)C(=O)NCC2(c3ccccc3)CC2)cc1
- EC50 ([7]; hl-60): Not Active
- EC50 (fMet-Leu-Phe receptor [9]; hl-60): Not Active

SMILES: COc1cc(F)c([C@@H]2CNC(=O)[C@H]2NC(=O)NC2(c3cccc(C)n3)CC2)c(F)c1
- EC50 [1]: < 10 nM
- EC50 (fMet-Leu-Phe receptor [4]; cho): Not Active

SMILES: Cc1cnc(NC(=O)N[C@@H]2CCCN(c3ccc(-c4ccccc4NS(C)(=O)=O)cc3F)C2=O)cn1
- EC50 [1]: 22 nM
- EC50 (fMet-Leu-Phe receptor [4]; read-out: EC50): 2000 nM

SMILES: CC(C)C(C(=O)O)C(C)NC(=O)Nc1ccc(Br)cc1 (stereo in doubt; 20) [listing 2 of 2 here]
- Emax [5]: 91%
- Ratio EC50 (Homo sapiens): 101
- Emax [6]: 75%

SMILES: CS(=O)(=O)Nc1ccccc1-c1ccc(N2CCC[C@@H](NC(=O)Nc3cnc(Cl)cn3)C2=O)cc1
- EC50 [1]: < 5 nM
- EC50 (fMet-Leu-Phe receptor [4]; cho): Not Active

SMILES: NC(=O)c1ccccc1-c1ccc(N2CCCC(NC(=O)Nc3ccc(C(F)(F)F)cc3)C2=O)cc1 (racemic)
- EC50 [1]: 40 nM

SMILES: COc1cc(F)c([C@@H]2CNC(=O)[C@H]2Nc2nnc(-c3ccc(Cl)cc3)s2)c(F)c1
- EC50 [1]: < 40 nM
- EC50 (fMet-Leu-Phe receptor [4]; cho): Not Active

SMILES: CP(C)(=O)c1ccccc1-c1ccc(N2CC[C@@H](NC(=O)Nc3csc(Cl)c3)C2=O)c(F)c1F
- EC50 [1]: 2.9 nM

SMILES: COc1ccc(NC(=O)N[C@H](Cc2ccc(C#N)cc2)C(=O)NCC2(c3cccc(O)c3)CC2)cc1
- EC50 ([7]; read-out: EC50): 7000 nM
- Emax [8]: 70%
- EC50 (fMet-Leu-Phe receptor [9]; hl-60): Not Active

SMILES: O=C(CNC(=O)Nc1ccc(Br)cc1)N[C@@H](Cc1ccccc1)C(=O)O
- Emax [5]: 97%
- Ratio EC50 (Homo sapiens): 24
- Emax [6]: 197%

SMILES: COc1ccc([C@@H]2CCN(Cc3ccccn3)C(=O)[C@@H]2NC(=O)Nc2ccc(F)cc2)cc1 (relative stereo)
- EC50 (fMet-Leu-Phe receptor [2]): 1 nM
- EC50 [3]: 1 nM

SMILES: CC(C)C(C(=O)O)C(C)NC(=O)Nc1ccc(Br)cc1 (stereo in doubt; 21)
- EC50 [10]: 25 nM
- EC50 (fMet-Leu-Phe receptor [11]): 1.7 nM
